Measured values taken from PMC11384906, “PAR1-mediated Non-periodical Synchronized Calcium Oscillations in Human Mesangial Cells” (Function, 2024).

Columns and labels:
[1] = test system: freshly isolated Wistar rat glomeruli; details: Ang II 60 µM, acute application; text b29 words it 'up to'
Excerpt: Sixteen-week Wistar Kyoto male rats were obtained from Charles River and were kept in a light-controlled environment with a 12:12-h light/dark cycle and given free access to water (filtered, RO water) and food (5V75-PicoLab Verified 75 IF, LabDiet, USA).
Briefly, male Wistar rat kidneys were harvested, decapsulated, and used to isolate glomeruli by differential sieving. Freshly isolated glomeruli were collected and stored on ice in a 15-mL tube with a 5% BSA (Sigma-Aldrich, # A8327)/RPMI-1640 solution with non-permeable 150 kDa TRITC-dextran (1 mg/mL, TdB Labs, #TD150, Uppsala, Sweden). […] Glomeruli were attached to poly-L-lysine covered glass-bottom dishes and covered with the extracellular solution containing 150 kDa TRITC dextran. Z-stacks with 18 consecutive focal planes (3 µm each) were collected every 1 min, allowing glomeruli volume reconstruction. Output files were imported into Imaris Software (Oxford Bitplane, version 9.6.1), reconstructed in 3D, and processed to calculate glomerular volume.

platelets = details: cited from earlier work
neuronal cells = details: cited from earlier work
[2] = test system: vascular smooth muscle cells; details: cited from earlier work
endothelial cells = details: cited from earlier work
monocytes = details: cited from earlier work
MCs = details: cited from earlier work
mesangial cells = details: cited from earlier work

Substance	Glomerular volume reduction [1] [%]	Thrombin concentration sufficient to induce Ca2+ mobilization (platelets) [U/mL]	Thrombin concentration required to activate intracellular Ca2+ signaling (neuronal cells)	Thrombin concentration required to activate vascular smooth muscle cells [2] [U/mL]	Thrombin concentration required to activate endothelial cells (endothelial cells) [U/mL]	Thrombin concentration required to activate intracellular Ca2+ signaling (monocytes)	Effect on MC proliferation and synthesis (MCs)	Concentration at which significant Ca2+ response was detected (mesangial cells)	Concentration at which significant Ca2+ response was detected (molar equivalent) (mesangial cells; equivalent of 0.1 U/mL)
Angiotensin II [Ang II]	20.7	–	–	–	–	–	–	–	–
thrombin	–	0.1 to 1	1-5 U/mL	0.5 to 2	0.5 to 2	1-5 U/mL	stimulate MC proliferation and synthesis of prostaglandins, nitric oxide, endothelin-1, extracellular matrix components, and chemokines	around 0.1 U/mL	approximately 1 nM
